The results in this text go back to patent publication US20100144674A1, “PYRIDAZINE DERIVATIVES” (SYNGENTA CROP PROTECTION, INC., priority 2006, published 2010).

Data set [1] deals with Botrytis Cinerea. Briefly: Botrytis cinerea / tomato / preventive. Type of data set: in vivo. As to conditions: 72 h, preventive spray, tomato plants cv. Roter Gnom, assessed 3 days after inoculation, read-out: inhibit fungal infestation. The procedure: Botrytis Cinerea/Tomato/Preventive (Action Against Botrytis on Tomato) 4 weeks old tomato plants cv. Roter Gnom are treated with the formulated test compound in a spray chamber. Two days after application tomato plants are inoculated by spraying a spore suspension on the test plants. After an incubation period of 3 days at 20° C. and 95% r. h. in a greenhouse the disease incidence is assessed.

The test system of data set [2] is Alternaria Solani. Briefly: Alternaria solani / tomato / preventive. Type of data set: in vivo. As to conditions: 96 h, preventive spray, tomato plants cv. Roter Gnom, assessed 4 days after inoculation, read-out: inhibit fungal infestation. The procedure: Alternaria Solani/Tomato/Preventive (Action Against Alternaria on Tomato) 4 weeks old tomato plants cv. Roter Gnom are treated with the formulated test compound in a spray chamber. Two days after application tomato plants are inoculated by spraying a spore suspension on the test plants. After an incubation period of 4 days at 22° C./18° C. and 95% r. h. in a greenhouse the disease incidence is assessed.

Data set [3] has as its system Magnaporthe Grisea (Pyricularia Oryzae). Briefly: whole plant or invertebrate. Type of data set: in vivo. As to conditions: 144 h, read-out: inhibit fungal infestation.
Data set [4] concerns Uncinula Necator. Briefly: Uncinula necator / grape / preventive (powdery mildew). Type of data set: in vivo. As to conditions: Erysiphe necator, 168 h, preventive spray, grape seedlings cv. Gutedel, assessed 7 days after inoculation, read-out: inhibit fungal infestation. The procedure: Uncinula Necator/Grape/Preventive (Action Against Powdery Mildew on Grape) 5 weeks old grape seedlings cv. Gutedel are treated with the formulated test compound in a spray chamber. One day after application grape plants are inoculated by shaking plants infected with grape powdery mildew above the test plants. After an incubation period of 7 days at 24° C./22° C. and 70% r. h. under a light regime of 14/10 h (light/dark) the disease incidence is assessed.

Data set [5] concerns Pyrenophora Teres (Helminthosporium Teres). Briefly: Pyrenophora teres (Helminthosporium teres) / barley / preventive (net blotch). Type of data set: in vivo. Particulars: 96 h, preventive spray, barley plants cv. Regina, assessed 4 days after inoculation, read-out: inhibit fungal infestation. The procedure:
Pyrenophora Teres (Helminthosporium Teres)/Barley/Preventive (Action Against Net Blotch on Barley) 1-week-old barley plants cv. Regina are treated with the formulated test compound in a spray chamber. Two days after application barley plants are inoculated by spraying a spore suspension (2.6×10^4 conidia/ml) on the test plants. After an incubation period of 4 days at 20° C. and 95% r. h. the disease incidence is assessed.

In data set [6] the test system is Septoria Tritici. Briefly: Septoria tritici / wheat / preventive (Septoria leaf spot). Type of data set: in vivo. Particulars: Zymoseptoria tritici, preventive spray, wheat plants cv. Riband, assessed 16-18 days after inoculation, read-out: inhibits fungal infestation. The procedure: Septoria Tritici/Wheat/Preventive (Action Against Septoria Leaf Spot on Wheat) 2 weeks old wheat plants cv. Riband are treated with the formulated test compound in a spray chamber. One day after application wheat plants are inoculated by spraying a spore suspension (10^6 conidia/ml) on the test plants. After an incubation period of 1 day at 22° C./21° C. and 95% r. h. plants are kept at 22° C./21° C. and 70% r.h. in a greenhouse. The disease incidence is assessed 16-18 days after inoculation.

Data set [7] deals with Puccinia Recondita. Briefly: Puccinia recondita / wheat / preventive (brown rust). Type of data set: in vivo. Particulars: 264 h, preventive spray, wheat plants cv. Arina, assessed 11 days after inoculation, read-out: inhibits fungal infestation. The procedure:
Puccinia Recondita/Wheat/Preventive (Action Against Brown Rust on Wheat) 1 week old wheat plants cv. Arina are treated with the formulated test compound in a spray chamber. One day after application wheat plants are inoculated by spraying a spore suspension ([…] uredospores/ml) on the test plants. After an incubation period of 1 day at 20° C. and 95% r. h. plants are kept for 10 days 20° C./18° C. (day/night) and 60% r.h. in a greenhouse. The disease incidence is assessed 11 days after inoculation.

In the case of `Cc1nnc(Cl)c(-c2c(F)cc(F)cc2F)c1-c1ccc2ccccc2c1` [I.ae.198, 3-chloro-6-methyl-5-naphthalen-2-yl-4-(2,4,6-trifluorophenyl)-pyridazine], the melting point was 86 to 89 °C. Besides, in data set [1], the inhibition at 200 ppm was at least 80%. The inhibition at 200 ppm in data set [2] was at least 80%. For the same compound, the inhibition at 200 ppm in data set [3] is at least 80%. In addition, the inhibition at 200 ppm in data set [4] is at least 80%. In data set [5], the inhibition at 200 ppm is at least 80%. Moreover, in data set [6], the inhibition at 200 ppm was at least 80%. Further, the inhibition at 200 ppm in data set [7] is at least 80%.
As for `COc1nnc(C)c(-c2ccc3ccccc3c2)c1-c1c(F)cc(F)cc1F` [I.ae.199, 3-methoxy-6-methyl-5-naphthalen-2-yl-4-(2,4,6-trifluorophenyl)-pyridazine], the melting point was 138 to 140 °C. For the same compound, the inhibition at 200 ppm in data set [1] was at least 80%. Further, the inhibition at 200 ppm in data set [2] was at least 80%. Also, in data set [4], the inhibition at 200 ppm was at least 80%. Further, the inhibition at 200 ppm in data set [5] is at least 80%.
For the compound `Cc1nnc(F)c(-c2c(F)cc(F)cc2F)c1-c1ccc2ccccc2c1` [I.ae.197, 3-fluoro-6-methyl-5-naphthalen-2-yl-4-(2,4,6-trifluorophenyl)-pyridazine], the melting point lay within 108 to 110 °C. Besides, the inhibition at 200 ppm in data set [1] is at least 80%. Also, the inhibition at 200 ppm in data set [3] was at least 80%. Further, the inhibition at 200 ppm in data set [5] was at least 80%. Moreover, the inhibition at 200 ppm in data set [6] is at least 80%. For the same compound, in data set [7], the inhibition at 200 ppm is at least 80%.
`Cc1n[nH]c(=O)c(-c2c(F)cc(F)cc2F)c1-c1ccc2ccccc2c1` [I.ae.196, 6-methyl-5-naphthalen-2-yl-4-(2,4,6-trifluorophenyl)-2H-pyridazin-3-one]: the melting point lay in the range of 266 to 268 °C.
The compound `COc1nnc(C)c(-c2ccc3ccccc3c2)c1-c1c(F)cccc1Cl` [I.ae.079, 4-(2-chloro-6-fluorophenyl)-3-methoxy-6-methyl-5-naphthalen-2-yl-pyridazine] showed a melting point of 182 to 184 °C. Moreover, the inhibition at 200 ppm in data set [1] is at least 80%. The inhibition at 200 ppm in data set [3] was at least 80%. In addition, in data set [4], the inhibition at 200 ppm is at least 80%.
As to `Cc1nnc(C)c(-c2c(F)cccc2Cl)c1-c1ccc2ccccc2c1` [I.ae.080, 4-(2-chloro-6-fluorophenyl)-3,6-dimethyl-5-naphthalen-2-yl-pyridazine], the melting point lay in the range of 120 to 123 °C. Further, in data set [2], the inhibition at 200 ppm is at least 80%. In addition, the inhibition at 200 ppm in data set [3] is at least 80%. For the same compound, the inhibition at 200 ppm in data set [6] was at least 80%.

Broadly, the melting point is the temperature, or range, at which the solid turns liquid.
